Laboratory results: patent publication US9249125B2, “Pyrazole derivatives as p38 MAP inhibitors” (RESPIVERT LIMITED, priority 2012, dated 2016)

Experiments:
p38 MAPKα = p38 MAPKα (Homo sapiens (Human), UniProt Q16539); experiment: p38 MAPKα enzyme inhibition (FRET, Z-LYTE); assay type: biochemical
Syk = Syk (Homo sapiens (Human), UniProt P43405); experiment: Syk enzyme inhibition (FRET, Z-LYTE); assay type: biochemical
Procedure, shortened: (§1)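 Z-LYTE FRET kinase assay: enzyme (3000 or 2000 ng/mL stock, respectively) preincubated 2 h at RT with compound (4–0.004 μg/mL stocks), then FRET peptide plus ATP (800 μM stock for c-Src, 60 μM for Syk) added for 1 h. Protease development 1 h; phosphorylation from coumarin/fluorescein emission ratio.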

GSK3α = GSK3α (Homo sapiens (Human), UniProt P49840); experiment: GSK 3α enzyme inhibition (FRET, Z-LYTE); assay type: biochemical
Sequence of GSK3α (P49840 whole entry): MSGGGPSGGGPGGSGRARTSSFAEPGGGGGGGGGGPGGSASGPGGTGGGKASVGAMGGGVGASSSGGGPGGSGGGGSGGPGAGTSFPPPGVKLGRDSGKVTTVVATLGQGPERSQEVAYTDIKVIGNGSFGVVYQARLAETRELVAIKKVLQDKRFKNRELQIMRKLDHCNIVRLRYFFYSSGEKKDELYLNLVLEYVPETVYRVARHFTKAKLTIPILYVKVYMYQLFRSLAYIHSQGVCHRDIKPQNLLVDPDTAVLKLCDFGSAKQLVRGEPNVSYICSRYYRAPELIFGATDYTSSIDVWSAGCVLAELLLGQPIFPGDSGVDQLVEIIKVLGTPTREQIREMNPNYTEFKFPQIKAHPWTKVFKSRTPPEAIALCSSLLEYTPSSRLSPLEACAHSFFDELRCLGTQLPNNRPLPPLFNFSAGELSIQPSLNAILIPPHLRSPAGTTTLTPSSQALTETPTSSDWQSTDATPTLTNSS
Procedure, shortened: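 Phosphorylation was read as the donor (coumarin) to acceptor (fluorescein) ratio after a 1 hr protease step destroying non-phosphorylated peptide. Before this, compound (4–0.004 μg/mL stocks) sat 2 hr at RT with GSK3α (500 ng/mL stock), followed by 1 hr kinase reaction with 8 μM peptide and 40 μM ATP stocks.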

[1] = test system: LPS-induced airways neutrophilia in mice; experiment: LPS-induced neutrophil accumulation in mice; assay type: in vivo; conditions: Test Substance at 0.2 mg/mL, intra tracheal, dosed 8 hr pre-LPS challenge
Experimental: Non-fasted Balb/c mice are dosed by the intra tracheal route with either vehicle, or the test substance at the indicated times (within the range 2-8 hr) before stimulation of the inflammatory response by application of an LPS challenge. At T=0, mice are placed into an exposure chamber and exposed to LPS (7.0 mL, 0.5 mg/mL solution in PBS) for 30 min). After a further 8 hr the animals are anesthetized, their tracheas cannulated and BALF extracted by infusing and then withdrawing from their lungs 1.0 mL of PBS via the tracheal catheter. Total and differential white cell counts in the BALF samples are measured using a Neubaur haemocytometer. Cytospin smears of the BALF samples are prepared by centrifugation at 200 rpm for 5 min at RT and stained using a DiffQuik stain system (Dade Behring). Cells are counted using oil immersion microscopy. Data for neutrophil numbers in BAL are shown as mean±S.E.M. (standard error of the mean). The percentage inhibition of neutrophil accumulation is calculated for each treatment relative to vehicle treatment.

[2] = test system: LPS-induced TNFα release in d-U937 cells; experiment: LPS-induced TNFα release in d-U937 cells; assay type: cell-based; conditions: Homo sapiens, dU937, relative to 10 μg/mL BIRB796, read-out: LPS Induced Release of Cytokine in d-937 Cells TNFα REC50
Procedure, shortened: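 Read-out: TNFα and IL-8 released into supernatant, sandwich ELISA, expressed as inhibition versus vehicle at each dose and fitted to give REC50. Cells were PMA-differentiated U937 (100 ng/mL, 48–72 hr), compound-exposed 2 hr before a 4 hr LPS stimulus (0.1 μg/mL).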

cSrc = cSrc (Homo sapiens (Human), UniProt P12931); experiment: c-Src enzyme inhibition (FRET, Z-LYTE); assay type: biochemical
Sequence of cSrc (P12931 whole entry, looked up): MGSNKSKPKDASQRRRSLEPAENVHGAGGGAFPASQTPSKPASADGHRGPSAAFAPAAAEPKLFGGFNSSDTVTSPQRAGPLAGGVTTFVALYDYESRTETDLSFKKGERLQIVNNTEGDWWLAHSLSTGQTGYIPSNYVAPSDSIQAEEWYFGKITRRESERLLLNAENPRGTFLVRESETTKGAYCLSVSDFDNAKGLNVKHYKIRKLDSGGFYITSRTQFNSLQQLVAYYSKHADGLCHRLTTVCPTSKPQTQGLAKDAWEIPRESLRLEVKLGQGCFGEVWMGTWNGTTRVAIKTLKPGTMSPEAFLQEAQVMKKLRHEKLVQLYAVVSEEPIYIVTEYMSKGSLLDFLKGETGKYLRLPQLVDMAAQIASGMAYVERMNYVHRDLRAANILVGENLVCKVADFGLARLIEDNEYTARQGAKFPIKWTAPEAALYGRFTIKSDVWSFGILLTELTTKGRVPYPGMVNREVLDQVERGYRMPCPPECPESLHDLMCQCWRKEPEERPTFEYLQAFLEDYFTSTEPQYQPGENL
Procedure, shortened: as §1

d-U937 cells = experiment: Cell viability: MTT assay; assay type: cell-based, human; conditions: 1 μg/mL
Procedure, shortened: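 MTT read-out (1 h, absorbance 550 nm) on d-U937 cells after pre-incubation with 1 or 10 μg/mL compound under two regimes: 4 h, 5% FCS, or 24 h, 10% FCS RPMI1640. Values are percent loss of viability relative to vehicle (0.5% DMSO), so increases are reported as negative.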

[3] = test system: LPS-induced IL-8 release in d-U937 cells; experiment: LPS-induced IL-8 release in d-U937 cells; assay type: cell-based; conditions: Homo sapiens, dU937, read-out: LPS Induced Release of Cytokine in d-937 Cells IL-8 IC50
Procedure, shortened: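 Sandwich ELISA of culture supernatant gives TNFα and IL-8 levels after a 4 hr challenge with LPS (0.1 μg/mL, E. coli O111:B4). Before stimulation, macrophage-like U937 cells, obtained by 48–72 hr in PMA at 100 ng/mL, sit with compound for 2 hr. Relative EC50 is derived from concentration-response data.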

[4] = test system: Poly I:C-induced ICAM-1 expression in BEAS2B cells; experiment: Poly I:C-induced ICAM-1 expression in BEAS2B cells; assay type: cell-based; conditions: Homo sapiens, BEAS-2B, read-out: Poly IC induced ICAM1 in BEAS2B IC50
Procedure, shortened: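 Cell-based ELISA read at 450 nm minus 655 nm, divided by crystal violet OD595 to normalize for cell number, gave ICAM-1 levels. Readout was taken 18 hr after poly I:C (1 μg/mL, Oligofectamine) transfection of human bronchial BEAS2B cells pretreated 2 hr with test compound.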

Sequence of p38 MAPKα (Q16539 whole entry): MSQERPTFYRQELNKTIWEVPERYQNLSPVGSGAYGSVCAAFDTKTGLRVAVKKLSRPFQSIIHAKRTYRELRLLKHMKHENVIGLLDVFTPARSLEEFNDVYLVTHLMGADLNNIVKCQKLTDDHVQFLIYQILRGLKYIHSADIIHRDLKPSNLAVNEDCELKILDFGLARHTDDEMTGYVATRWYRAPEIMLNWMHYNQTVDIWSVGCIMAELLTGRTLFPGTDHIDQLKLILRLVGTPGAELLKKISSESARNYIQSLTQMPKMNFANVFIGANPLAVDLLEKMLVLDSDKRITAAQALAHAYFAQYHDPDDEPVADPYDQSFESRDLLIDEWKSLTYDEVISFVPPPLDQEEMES

IC50 (p38 MAPKα) | IC50 (Syk) | IC50 (GSK3α) | EC50 [2] | IC50 (cSrc) | IC50 [3] | SMILES | % Inhibition of neutrophil accumulation in BAL [1] | Neutrophil numbers in BAL (+/−SEM) [1] | MTT Assay Cell viability at time point in d-U937 cells 4 h (d-U937 cells) | MTT Assay Cell viability at time point in d-U937 cells 24 h (d-U937 cells) | IC50 [4]
67 nM | 5 nM | > 1530 nM | 1.7 nM | 5 nM | 1.4 nM | COc1ccc(-n2nc(C(C)(C)C)cc2NC(=O)Nc2ccc(Oc3ccnc(Nc4cc(C)c5[nH]ncc5c4)n3)c3ccccc23)cc1 [Example 42, 1-(3-(tert-butyl)-1-(4-methoxyphenyl)-1H-pyrazol-5-yl)-3-(4-((2-((7-methyl-1H-indazol-5-yl)amino)pyrimidin-4-yl)oxy)naphthalen-1-yl)urea] | 50% | 8.5 ± 1.5 ×10^5/mL | −ve (−ve and +ve indicate that the value is below and above respectively, the no significant effect threshold, defined as 30% inhibition at 1 μg/mL at the time point indicated.) | +ve (−ve and +ve indicate that the value is below and above respectively, the no significant effect threshold, defined as 30% inhibition at 1 μg/mL at the time point indicated.) | 1.4 nM
30 nM | 8 nM | > 1560 nM | 1.6 nM | 3 nM | 0.5 nM | COc1ccc(-n2nc(C(C)(C)C)cc2NC(=O)Nc2ccc(Oc3ccnc(Nc4ccc5[nH]ncc5c4)n3)c3ccccc23)cn1 [Example 13, 1-(4-((2-((1H-Indazol-5-yl)amino)pyrimidin-4-yl)oxy)naphthalen-1-yl)-3-(3-(tert-butyl)-1-(6-methoxypyridin-3-yl)-1H-pyrazol-5-yl)urea] | 50% | 8.5 ± 1.4 ×10^5/mL | −ve (−ve and +ve indicate that the value is below and above respectively, the no significant effect threshold, defined as 30% inhibition at 1 μg/mL at the time point indicated.) | −ve (−ve and +ve indicate that the value is below and above respectively, the no significant effect threshold, defined as 30% inhibition at 1 μg/mL at the time point indicated.) | 2.4 nM
61 nM | 6 nM | 900 nM | 1.7 nM | 113 nM | 2.2 nM | Cc1ccc(-n2nc(C(C)(C)C)cc2NC(=O)Nc2ccc(Oc3ccnc(Nc4ccc5c(c4)CC(=O)N5C)n3)c3ccccc23)cc1 [Example 20, 1-(3-(tert-butyl)-1-(p-tolyl)-1H-pyrazol-5-yl)-3-(4-((2-((1-methyl-2-oxoindolin-5-yl)amino)pyrimidin-4-yl)oxy)naphthalen-1-yl)urea] |  |  | −ve (−ve and +ve indicate that the value is below and above respectively, the no significant effect threshold, defined as 30% inhibition at 1 μg/mL at the time point indicated.) | −ve (−ve and +ve indicate that the value is below and above respectively, the no significant effect threshold, defined as 30% inhibition at 1 μg/mL at the time point indicated.) | 6.3 nM
45 nM | 4 nM | 1100 nM | 1.7 nM | 2 nM | 2.3 nM | Cc1cc(Nc2nccc(Oc3ccc(NC(=O)Nc4cc(C(C)(C)C)nn4-c4ccc(=O)n(CCO)c4)c4ccccc34)n2)cc2cn[nH]c12 [Example 87, 1-(3-(tert-butyl)-1-(1-(2-hydroxyethyl)-6-oxo-1,6-dihydropyridin-3-yl)-1H-pyrazol-5-yl)-3-(4-((2-((7-methyl-1H-indazol-5-yl)amino)pyrimidin-4-yl)oxy)naphthalen-1-yl)urea] |  |  | −ve (−ve and +ve indicate that the value is below and above respectively, the no significant effect threshold, defined as 30% inhibition at 1 μg/mL at the time point indicated.) | −ve (−ve and +ve indicate that the value is below and above respectively, the no significant effect threshold, defined as 30% inhibition at 1 μg/mL at the time point indicated.) | 1 nM
36 nM | < 1 nM | 4950 nM | 14.2 nM | < 1 nM | 43.9 nM | Cc1nc2cc(Nc3nccc(Oc4ccc(NC(=O)Nc5cc(C(C)(C)C)nn5-c5ccc(OCCN6CCOCC6)cc5)c5ccccc45)n3)ccc2[nH]1 [Example 75, 1-(3-(tert-butyl)-1-(4-(2-morpholinoethoxy)phenyl)-1H-pyrazol-5-yl)-3-(4-((2-((2-methyl-1H-benzo[d]imidazol-6-yl)amino)pyrimidin-4-yl)oxy)naphthalen-1-yl)urea] |  |  | −ve (−ve and +ve indicate that the value is below and above respectively, the no significant effect threshold, defined as 30% inhibition at 1 μg/mL at the time point indicated.) | −ve (−ve and +ve indicate that the value is below and above respectively, the no significant effect threshold, defined as 30% inhibition at 1 μg/mL at the time point indicated.) | 16.3 nM
94 nM | 13 nM | 686 nM | 1.8 nM | 2 nM | 10.3 nM | CC(C)(C)c1cc(NC(=O)Nc2ccc(Oc3ccnc(Nc4ccc5c(c4)COC5)n3)c3ccccc23)n(-c2ccc(OCCN3CCOCC3)cc2)n1 [Example 60, 1-(3-(tert-butyl)-1-(4-(2-morpholinoethoxy)phenyl)-1H-pyrazol-5-yl)-3-(4-((2-((1,3-dihydroisobenzofuran-5-yl)amino)pyrimidin-4-yl)oxy)naphthalen-1-yl)urea] |  |  | −ve (−ve and +ve indicate that the value is below and above respectively, the no significant effect threshold, defined as 30% inhibition at 1 μg/mL at the time point indicated.) | −ve (−ve and +ve indicate that the value is below and above respectively, the no significant effect threshold, defined as 30% inhibition at 1 μg/mL at the time point indicated.) | 1.4 nM
8 nM | 15 nM | 2530 nM | 19.7 nM | < 2 nM | 54.4 nM | CC(C)c1cc(NC(=O)Nc2ccc(Oc3ccnc(Nc4ccc5[nH]ncc5c4)n3)c3ccccc23)n(-c2ccc(=O)n(CCO)c2)n1 [Example 85, 1-(4-((2-((1H-indazol-5-yl)amino)pyrimidin-4-yl)oxy)naphthalen-1-yl)-3-(1-(1-(2-hydroxyethyl)-6-oxo-1,6-dihydropyridin-3-yl)-3-isopropyl-1H-pyrazol-5-yl)urea] |  |  | −ve (−ve and +ve indicate that the value is below and above respectively, the no significant effect threshold, defined as 30% inhibition at 1 μg/mL at the time point indicated.) | −ve (−ve and +ve indicate that the value is below and above respectively, the no significant effect threshold, defined as 30% inhibition at 1 μg/mL at the time point indicated.) | 70.2 nM
